Data: patent publication US9828351B2, “Enzyme interacting agents” (MONASH UNIVERSITY, priority 2014, dated 2017)

Experiments:
[1] = molecular target: T1, recombinant his tagged human SphK1 (Homo sapiens, UniProt Q9NYA1); assay: SphK1 activity assay (32P-labelled S1P production); format: biochemical; details: 10 μM compound; % of activity compared to control (DMSO vehicle only)
T1 construct: His tag; made in house; host or cells: insect cells (baculovirus system)
Procedure: (§1) The SphK assays employed, measure SphK activity through the production of ^32P-labelled S1P following the addition of exogenous Sph and [γ^32P] ATP.
(§2) Activities of SphK1 and SphK2 were determined using identical assay conditions with the exception that SphK1 assays used 3 ng/assay recombinant his tagged human SphK1 (made in the lab in a baculovirus system using insect cells), while SphK2 assays used 30 ng/assay recombinant human SphK2 (purchased by Johnson and Johnson).
(§3) Compounds were dissolved in DMSO at 10 mM, the mixture was vortexed (and sonicated if necessary). Stock solutions were kept at 4° C. until used.
(§4) Aliquots were made containing 100 μM drug compound. These aliquots were then diluted in assay buffer: 100 mM tris/HCl pH 7.4, 100 mM NaCl, 1 mM sodium orthovanadate, 10 mM NaF to make up a 10 μM solution.
(§5) Recombinant enzyme was diluted in assay buffer (above) to make up a final concentration of 0.03 ng/μL (SphK1) or 0.33 ng/μL (SphK2).
(§6) 40 μL recombinant enzyme was added to an Eppendorf® Safe-Lock® microcentrifuge tube. This was followed by the addition of drug compound from prepared aliquots, before adding ATP, [γ^32P]ATP and Sph. Note: ATP stock is made up in 1M Tris pH 7.4 and 200 mM MgCl2. This allows ATP to complex with Mg and be available as a substrate.
(§7) The rest of the reaction mixture was then added to the enzyme sample (Table 1). All reactions were performed as triplicates.
(§8) Reaction mixture was prepared with sufficient volume to assay all of the required samples. To do this, each of the volumes shown was multiplied by n+1, where n is the number of samples to be assayed. Assay buffer used is made up of 100 mM tris/HCl pH 7.4, 100 mM NaCl, 1 mM sodium orthovanadate and 10 mM NaF.
(§9) The mixture was then incubated at 37° C. for 20 min (SphK1)/45 min (SphK2).
(§10) To the 100 μL assay mixture, add 270 μl of chloroform/methanol/conc. HCl (100:200:1).
(§11) 20 μL of 5 M KCl was then added to the assay mixture.
(§12) 70 μL of chloroform was added to create phase separation. The solution was vortexed to mix well.
(§13) The solution was then centrifuged for 5 min at 13,000×g to fully separate the phases.
(§14) The upper aqueous/methanol phase was separated by aspiration.
(§15) 50 μL of the remaining lower chloroform phase […] was applied onto the TLC plate by repeatedly spotting a few microliters of liquid (<5 mm diameter circle) between each sample spot with the pipette tip. The liquid was then allowed to absorb into the plate before drying with a stream of air.
(§16) The TLC plate was developed in a glass TLC developing tank with 1-butanol/ethanol/glacial acetic acid/H2O (8:2:1:2) until the mobile phase is within 1 cm of the top of the TLC plate.
(§17) The TLC plate was then exposed to a storage phosphor screen overnight. Storage phosphor screens work by capturing images produced by ionising radiation (e.g. ^32P). The phosphorimager stimulates the screen which uses lasers to convert the latent signal to light. Light is proportional to the amount of radioactivity in the sample. The image is then quantified using standard quantification software (ImageQuant™). Whatman paper with the assay mixture dilutions, was included to assist quantification of the phosphor signal.
(§18) Once the storage phosphor screen was read using the phosphorimager, S1P spots, which have an Rf of 0.7 with the mobile phase employed, were quantified.
(§19) The S1P spot intensity can be converted to the amount of phosphate transferred/min/mg protein.

[2] = molecular target: T2, SphK1a in Flpln-SphK1a cells (Flp-In T-Rex HEK293) (Homo sapiens, UniProt Q9NYA1); assay: SphK1 proteasomal degradation study (immunoblotting); format: cell-based; details: 10 μM test compound, 24 h
T2 construct: expressed in transfected cells; host or cells: Flp-In T-Rex HEK293 cells, doxycycline-induced
Procedure: These studies were performed as previously described for the drug SKI-II (C. Loveridge et al. J. Biol. Chem. 2010, 285, 38891). […] After 24 h cells were treated with 10 μm test compound, 10 μm MG132, or both. DMSO was used as the vehicle control. After a further 24 h, cells were harvested, lysed, and subjected to SDS-PAGE and immunoblotting with anti-FLAG (Sigma), anti-ERK1/2 (Promega), or anti-a-tubulin (Abcam) antibodies.

[3] = system: PC3 prostate cancer cell lines; assay: Anticancer activity in PC3 cell line, CellTitre AQueous One cell viability assay; format: cell-based; details: concentration required to inhibit cell proliferation by 50%, 72 hours
Procedure: Measurement of Anticancer Activity in PC3 Cell Line Assays
PC3 prostate cancer cell lines were cultured in DMEM (containing 10% fetal calf serum and penicillin-streptomycin).
Before treatment with drug compounds, cells were plated at 2,500 cells/well in 96 well plates and incubated at 37° C. with 5% CO2 in a humidified incubator for 24 hours prior. Cells were only plated in columns 3-10 and rows C—F to ensure uniform humidity and warmth across all wells. The remaining wells were filled with 100 μL of phosphate buffered saline.
Drug stock solutions (50 or 10 mM) were diluted×1000 in media to a final concentration of either 50 μM or 10 μM with a DMSO vehicle concentration of 0.1%.
Cell culture supernatants were aspirated and replaced with drug containing media. Drug treatments were performed in duplicate wells, while potential plate layout-specific variation in cell growth was accounted for by addition of a vehicle control (0.1% DMSO).
Cells were then incubated with drug compounds at 37° C. with 5% CO2 in a humidified incubator for 72 hours prior to assay.
Media was diluted with CellTitre AQueous One Solution (Promega, Australia; Cat # G3580) according to manufacturer's instructions to produce a final concentration of 317 μg/mL.
Cell culture supernatants were then aspirated from wells and replaced with 100 μL of CellTitre solution. Triplicate cell-free control wells containing only CellTitre solution were also included in each assay.
Cells were then incubated at 37° C. with 5% CO2 in a humidified incubator for 1 hour at which time absorbance was read at 490 nm with an EnVision microplate reader (Perkin Elmer, Australia).
When analysing data, background absorbance (taken from cell-free control wells) was subtracted from each reading. […] For each drug concentration the mean (±SEM) is calculated and graphed using GraphPad Prism (version 5). A sigmoidal curved is fitted to the data and used to calculate the IC50 of each compound.

[4] = molecular target: T3, recombinant human SphK2 (Homo sapiens, UniProt Q9NRA0); assay: SphK2 activity assay (32P-labelled S1P production); format: biochemical; details: 10 μM compound, % of activity compared to control (DMSO vehicle only); for remaining activity at 10 µM: read-out: SphK2% actvity at 10 μm
T3 construct: purchased Johnson and Johnson
T3 sequence (Q9NRA0 1-654): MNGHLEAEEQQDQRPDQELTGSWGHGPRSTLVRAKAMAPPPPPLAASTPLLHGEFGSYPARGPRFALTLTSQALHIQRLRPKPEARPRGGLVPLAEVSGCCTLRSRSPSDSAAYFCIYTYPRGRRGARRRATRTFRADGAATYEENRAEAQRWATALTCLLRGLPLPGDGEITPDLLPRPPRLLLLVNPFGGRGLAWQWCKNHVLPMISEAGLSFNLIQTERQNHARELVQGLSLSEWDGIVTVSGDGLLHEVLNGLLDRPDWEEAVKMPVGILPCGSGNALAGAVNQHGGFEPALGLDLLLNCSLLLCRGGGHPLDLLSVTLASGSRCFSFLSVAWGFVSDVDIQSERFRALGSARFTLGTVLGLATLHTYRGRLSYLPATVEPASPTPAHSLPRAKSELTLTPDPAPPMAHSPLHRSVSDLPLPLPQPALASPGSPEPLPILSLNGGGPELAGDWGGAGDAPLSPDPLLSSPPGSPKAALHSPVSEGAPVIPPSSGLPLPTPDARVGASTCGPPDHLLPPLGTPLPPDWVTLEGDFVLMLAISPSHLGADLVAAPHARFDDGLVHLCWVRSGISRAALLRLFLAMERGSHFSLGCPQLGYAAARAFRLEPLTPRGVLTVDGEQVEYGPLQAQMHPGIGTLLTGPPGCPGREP
Procedure: as §1, §2, §3, §4, §5, §6, §7, §8, §9, §10, §11, §12, §13, §14, §15, §16, §17, §18, §19

[5] = system: MCF7 breast cancer cells; assay: Anticancer activity in MCF7 cell lines, MTS assay; format: cell-based; details: Homo sapiens, concentration required to inhibit cell proliferation by 50%, 72 hrs, read-out: MCF-7 IC50
Procedure: Measurement of Anticancer Activity in MCF7 Cell Lines
MCF7 breast cancer cells were treated with the test compounds and incubated at 37° C., 5% CO2 in air for 72 hrs. The MTS assay was conducted with addition of prepared MTS solution followed by 2 hr incubation, an OD reading and the raw data recorded. The data was managed in tabular form, values adjusted for vehicle control, and the adjusted values graphed as a sigmoidal curve and the EC50 value calculated.

[6] = molecular target: T4, Dihydroceramide Desaturase-1 (Des1) (Homo sapiens, UniProt O15121); assay: Dihydroceramide desaturase-1 (Des1) activity by HPLC in intact Jurkat cells labeled with DhCer-C6-NBD; format: cell-based; details: intact Jurkat cells; for IC50: read-out: Des 1 IC50
T4 construct: These modifications included the use of parental Jurkat cells; endogenous in cells; host or cells: parental Jurkat cells
T4 sequence (O15121 1-323): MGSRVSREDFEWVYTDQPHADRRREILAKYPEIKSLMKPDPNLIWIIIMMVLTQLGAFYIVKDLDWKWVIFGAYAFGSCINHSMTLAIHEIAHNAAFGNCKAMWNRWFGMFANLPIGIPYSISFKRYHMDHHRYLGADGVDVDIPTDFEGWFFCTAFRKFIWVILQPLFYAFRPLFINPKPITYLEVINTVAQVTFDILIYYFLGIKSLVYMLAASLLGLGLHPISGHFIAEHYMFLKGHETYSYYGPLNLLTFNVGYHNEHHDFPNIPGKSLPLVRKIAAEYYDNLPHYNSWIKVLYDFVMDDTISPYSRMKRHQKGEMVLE
Procedure: Measurement of Dihydroceramide Desaturase-1 (Des1) Activity:
These modifications included the use of parental Jurkat cells, 0.5% serum in the culture media, and cell harvesting via centrifugation at 500×g to maximise ceramide extraction. Extracted samples (50 ul) were analysed on a Waters HPLC coupled to a fluorescence detector using a 30 cm C18 reverse-phase column eluted with 1 ml/min 20% H2O and 80% acetonitrile, both with a 0.1% of trifluoroacetic acid.

[7] = system: Neonatal cardiac fibroblasts (NCFs) collagen synthesis; assay: Inhibition of NCF collagen synthesis by 3H-proline incorporation; format: cell-based
Procedure: Neonatal cardiac fibroblasts (NCFs) were isolated as previously reported (Lekawanvijit, S. Wang, B. H., Krum, H. Eur Heart J. 2010, 31(14), 1771-9). After isolation, NCF (passage 0) were placed into T75 cell culture flasks (BD Falcon, NSW, Australia) and maintained in high-glucose (25 mM) DMEM containing 5.33 mM KCl (Invitrogen, Mount Waverley, Vic, Australia) in the presence of 1% antibiotic/antimycotic (Invitrogen, Mount Waverley, Vic, Australia) and 10% fetal bovine serum (FBS) (JRH biosciences). Cells were incubated at 37° C. with 5% CO2 for overnight and then the media were changed. NCF confluence was checked microscopically and NCF were sub-cultured. After removing media and 3× wash with warm 1×PBS, 2 ml of warm 0.05% trypsin-EDTA was added to each flask. Flasks were placed back into the 37° C. incubator for 1-2 minutes to allow cells to lift off the surface of the flasks. Trypsin was inactivated by adding 8 ml of DMEM containing 10% FBS. NCF (passage 1) were centrifuged for 6 minutes at 1300 rpm at RT. Cell pellets was washed 3× with DMEM+10% FBS and resuspended in DMEM+10% FBS. Cells were then placed into new flasks and incubated at 37° C. with 5% CO2 for 48 hours.
To seed NCF, steps from trypsinization to resuspension were repeated as above. NCF (passage 2) were counted with the ‘Countess’ cell counter. […]

T1 sequence (Q9NYA1 whole entry): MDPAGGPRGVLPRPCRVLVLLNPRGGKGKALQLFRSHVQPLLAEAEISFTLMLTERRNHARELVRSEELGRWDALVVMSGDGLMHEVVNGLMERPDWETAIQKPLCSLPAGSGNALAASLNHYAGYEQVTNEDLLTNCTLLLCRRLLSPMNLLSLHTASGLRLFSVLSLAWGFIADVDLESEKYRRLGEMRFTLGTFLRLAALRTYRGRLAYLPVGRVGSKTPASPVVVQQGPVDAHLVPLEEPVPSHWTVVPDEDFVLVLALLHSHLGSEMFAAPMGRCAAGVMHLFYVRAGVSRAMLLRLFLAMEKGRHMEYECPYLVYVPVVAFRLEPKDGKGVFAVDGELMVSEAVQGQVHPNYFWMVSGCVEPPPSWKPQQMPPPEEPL
T2 sequence (Q9NYA1 whole entry): as above

SphK1% activity at 10 μm [1] | IC50 [3] | SphK2% actvity at 10 μm [4] | IC50 ([3]; Homo sapiens, PC-3) | IC50 [6] | activity at 10 µM [1] | remaining activity at 10 µM [4] | Compound | other results
50-80% | 0.1 to 1 µM | 80-100% | – | – | – | – | 3-(4-(5-(4-Chlorophenyl)-1,3,4-oxadiazol-2-yl)phenyl)-1,2,4-oxadiazol-5(4H)-one [Example E-15] | % SphK1a degradation at 10 μM [2]: 50%
– | – | – | 10 to 100 µM | – | – | – | O=C(Nc1ccc(O)cc1)c1nc(-c2ccc(Cl)cc2)cs1 [Example E-5, 4-(4-Chlorophenyl)-N-(4-hydroxyphenyl)thiazole-2-carboxamide] | IC50 [5]: 10 to 100 µM
– | – | – | – | 1 to 10 µM | – | – | Oc1ccc(Nc2nnc(-c3ccccc3)o2)cc1 [Example E-25, 4-((5-Phenyl-1,3,4-oxadiazol-2-yl)amino)phenol] | melting point: 231 °C
– | – | – | 10 to 100 µM | – | 20 to 50% | 50 to 80% | Clc1ccc(-c2nnc(Nc3ccc(-c4nn[nH]n4)cc3)o2)cc1 [Example E-27, 5-(4-Chlorophenyl)-N-[4-(1H-tetrazol-5-yl)phenyl]-1,3,4-oxadiazol-2-amine] | Des 1 IC50 [6]: inactive
– | – | – | 10 to 100 µM | 1 to 10 µM | < 1% | 5 to 20% | O=S1NC(c2ccc(Nc3nnc(-c4ccc(Cl)cc4)o3)cc2)=NO1 (centres unmarked) [Example E-28, 5-(4-Chlorophenyl)-N-[4-(2-oxido-3H-1,2,3,5-oxathiadiazol-4-yl)phenyl]-1,3,4-oxadiazol-2-amine] | –
100-150% | > 100 µM | 80-100% | – | – | – | – | (Z)-4-(5-(4-Chlorophenyl)-1,3,4-oxadiazol-2-yl)-N′-hydroxybenzimidamide [Example E-14] | EC (effective concentration: concentration required to reduce collagen synthesis to a level equal to or below unstimulated control) [7]: 0.5 to 5 µM
